Test [1] addresses FAD-linked sulfhydryl oxidase ALR (Homo sapiens, UniProt P55789). The experiment in a line: ALR-catalysed DTT oxidation blockers – biochemical, H2O2 detection, luminescence, cherry-pick, dose response (AID 493248).
A short description of test [2]: Luminescence Cell-Based Dose Response HTS to Identify Activators of Luciferase Translation or Activity in H4 […] Cells. [Related pubchem assays: 1829 (Project Summary), 1814 (Primary HTS)]. It counts as functional.
The test system of a further test is H4. The experiment in a line: Luminescence Cell-Based Dose Response HTS to Identify Activators of 5'UTR Stem-Loop Driven Prion Protein mRNA Translation in H4 Neuroglioblastoma Cells. [Related pubchem assays: 1829 (Project Summary), 1814 (Primary HTS)]. The test is classed as functional. As to conditions: Homo sapiens.
A short description of test [3]: Luminescence Cell-Based Dose Confirmation HTS to Identify Activators of 5'UTR Stem-Loop Driven Alpha-Synuclein mRNA Translation in H4 Neuroglioblastoma Cells. [Related pubchem assays: 1829 (Project Summary), 1814 (Primary HTS)]. The test is classed as functional.
For a further test, the target named is Nonstructural protein 1 (Influenza A virus, UniProt Q194T2). The test is classed as functional, Influenza A virus (A/California/07/2009(H1N1)).
A short description of test [4]: cells. The test is classed as functional, cell-based.
Test [5] in a line: fluconazole-exposed Candida albicans growth modulators – fluorescence, retest, confirmation (AID 2467). The test is classed as functional, cell-based.
A short description of test [6]: Trypanosoma cruzi growth suppression in host cells – NIH3T3 host cells, beta-gal luminescence, confirmation (AID 2044).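 Further: intracellular parasites grown in NIH/3T3 mouse fibroblasts as host cells; luminescent beta-galactosidase reporter signal from transgenic T. cruzi replicating inside host cells; inhibitors lower the luminescence signal.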 The test is classed as functional, cell-based.
The target in test [7] is T1, Ubiquitin-conjugating enzyme E2 N (Homo sapiens, UniProt P61088).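 Further: Dose-response confirmation in a TR-FRET assay detecting UBC13-driven polyubiquitin chain formation, inhibition measured.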
T1 sequence (P61088 whole entry): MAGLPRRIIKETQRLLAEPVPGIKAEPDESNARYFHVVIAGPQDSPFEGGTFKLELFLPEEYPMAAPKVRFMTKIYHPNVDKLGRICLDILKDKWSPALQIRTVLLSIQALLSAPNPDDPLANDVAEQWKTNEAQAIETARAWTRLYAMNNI
It counts as functional.

Test [8] in a line: cells. The test is classed as functional, cell-based. The source holds these as a separate data set.
A short description of test [9]: NIH3T3 cell viability loss – ATP luminescence, mouse fibroblasts, counter-screen, dose response (AID 2010).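 Further: cells exposed to compound for about 90 hours before reading.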 The test is classed as functional, cell-based. On the technique in general: Counterscreens check selectivity or assay interference.
A short description of test [10]: NIH-3T3 fibroblast cytotoxicity, dose response, cytotoxicity control, cell-based, fluorescence, Alamar Blue, secondary assay (AID 2327).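 Further: NIH-3T3 mouse fibroblasts cultured with fluconazole at 8 µg/mL.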 The test is classed as functional. In general terms: The colour change of resazurin is a common sign of viable cells or microbes.
The test system of a further test is Vero. The experiment in a line: cells. It counts as functional. As to conditions: Chlorocebus sabaeus.
In a further test the target is Genome polyprotein (dengue virus type 2, UniProt P29990). The test can be described thus: flavivirus cap methylation enzyme inhibition – biochemical, confirmation dose response, primary screen (AID 588689). It counts as functional.
Test [11] has as its target T2, Heat shock factor protein 1 (Mus musculus, UniProt P38532).
T2 sequence (P38532 whole entry): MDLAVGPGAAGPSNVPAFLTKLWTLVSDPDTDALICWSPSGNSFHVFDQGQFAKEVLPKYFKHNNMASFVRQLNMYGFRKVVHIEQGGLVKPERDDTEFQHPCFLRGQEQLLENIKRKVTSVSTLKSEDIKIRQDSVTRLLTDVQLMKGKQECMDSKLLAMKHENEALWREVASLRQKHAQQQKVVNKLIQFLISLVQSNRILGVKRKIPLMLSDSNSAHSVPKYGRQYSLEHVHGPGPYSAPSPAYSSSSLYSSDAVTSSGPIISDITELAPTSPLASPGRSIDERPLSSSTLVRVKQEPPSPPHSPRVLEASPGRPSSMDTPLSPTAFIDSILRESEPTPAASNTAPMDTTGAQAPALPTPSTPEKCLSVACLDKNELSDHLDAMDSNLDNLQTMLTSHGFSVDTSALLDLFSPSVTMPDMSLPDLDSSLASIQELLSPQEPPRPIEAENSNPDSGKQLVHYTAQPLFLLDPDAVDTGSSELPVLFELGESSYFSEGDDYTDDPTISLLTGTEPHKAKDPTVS
The test can be described thus: enhancement of HSF1-driven luciferase signal – cell-based, NIH3T3, luminescence, dose retest, confirmation (AID 435004).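 Further: stress induced by proteasome inhibitor MG132 added 30 min after compound; luciferase reporter driven by HSF1 response element in NIH3T3 cells; actives raise luminescence as potentiators of the MG132 stress response.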 It counts as functional.

Test [12] in a line: DRD fibroblast viability loss – cell-based, non-viral oncogenic, luminescence, dose response (AID 1934). The test is classed as functional. As to conditions: Homo sapiens.
Test [13] has as its system BJ. The experiment in a line: BJ-TERT-LT-ST fibroblast viability loss – cell-based, RAS-independent, luminescence, dose response (AID 1935).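 Further: BJ fibroblasts immortalized with TERT plus LT and ST oncogenes.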 As to conditions: Homo sapiens. The test is classed as functional.
In test [14] the test system is BJ. The test can be described thus: BJ-TERT fibroblast viability loss – cell-based, RAS-independent, luminescence, dose response (AID 1933). It counts as functional. As to conditions: Homo sapiens.
Test [15] deals with BJ. The experiment in a line: cells. The test is classed as functional, cell-based. As to conditions: Homo sapiens.
Test [16] has as its target T3, Polyadenylate-binding protein 1 (Homo sapiens, UniProt P11940). The experiment in a line: MLLE domain peptide-binding blockers, IC50 – biochemical, fluorescence polarization, FITC-PAM2 peptide, dose response (AID 602259). As to conditions: read-out: IC50_Mean. It counts as functional. Background: Polarisation of emitted light reports the rotation of a fluorescent probe.

In test [17] the target is T3, Polyadenylate-binding protein 1. The experiment in a line: MLLE binding blockers, Cy5 peptide tracer – biochemical, fluorescence polarization, Cy5-PAM2 peptide, secondary, miRNA deadenylation inhibitor project, dose response (AID 602260). The test is classed as functional. As to conditions: read-out: IC50_Mean.
The target of test [18] is T4, Histone-lysine N-methyltransferase NSD2 (Homo sapiens, UniProt O96028).
T4 sequence (O96028 whole entry): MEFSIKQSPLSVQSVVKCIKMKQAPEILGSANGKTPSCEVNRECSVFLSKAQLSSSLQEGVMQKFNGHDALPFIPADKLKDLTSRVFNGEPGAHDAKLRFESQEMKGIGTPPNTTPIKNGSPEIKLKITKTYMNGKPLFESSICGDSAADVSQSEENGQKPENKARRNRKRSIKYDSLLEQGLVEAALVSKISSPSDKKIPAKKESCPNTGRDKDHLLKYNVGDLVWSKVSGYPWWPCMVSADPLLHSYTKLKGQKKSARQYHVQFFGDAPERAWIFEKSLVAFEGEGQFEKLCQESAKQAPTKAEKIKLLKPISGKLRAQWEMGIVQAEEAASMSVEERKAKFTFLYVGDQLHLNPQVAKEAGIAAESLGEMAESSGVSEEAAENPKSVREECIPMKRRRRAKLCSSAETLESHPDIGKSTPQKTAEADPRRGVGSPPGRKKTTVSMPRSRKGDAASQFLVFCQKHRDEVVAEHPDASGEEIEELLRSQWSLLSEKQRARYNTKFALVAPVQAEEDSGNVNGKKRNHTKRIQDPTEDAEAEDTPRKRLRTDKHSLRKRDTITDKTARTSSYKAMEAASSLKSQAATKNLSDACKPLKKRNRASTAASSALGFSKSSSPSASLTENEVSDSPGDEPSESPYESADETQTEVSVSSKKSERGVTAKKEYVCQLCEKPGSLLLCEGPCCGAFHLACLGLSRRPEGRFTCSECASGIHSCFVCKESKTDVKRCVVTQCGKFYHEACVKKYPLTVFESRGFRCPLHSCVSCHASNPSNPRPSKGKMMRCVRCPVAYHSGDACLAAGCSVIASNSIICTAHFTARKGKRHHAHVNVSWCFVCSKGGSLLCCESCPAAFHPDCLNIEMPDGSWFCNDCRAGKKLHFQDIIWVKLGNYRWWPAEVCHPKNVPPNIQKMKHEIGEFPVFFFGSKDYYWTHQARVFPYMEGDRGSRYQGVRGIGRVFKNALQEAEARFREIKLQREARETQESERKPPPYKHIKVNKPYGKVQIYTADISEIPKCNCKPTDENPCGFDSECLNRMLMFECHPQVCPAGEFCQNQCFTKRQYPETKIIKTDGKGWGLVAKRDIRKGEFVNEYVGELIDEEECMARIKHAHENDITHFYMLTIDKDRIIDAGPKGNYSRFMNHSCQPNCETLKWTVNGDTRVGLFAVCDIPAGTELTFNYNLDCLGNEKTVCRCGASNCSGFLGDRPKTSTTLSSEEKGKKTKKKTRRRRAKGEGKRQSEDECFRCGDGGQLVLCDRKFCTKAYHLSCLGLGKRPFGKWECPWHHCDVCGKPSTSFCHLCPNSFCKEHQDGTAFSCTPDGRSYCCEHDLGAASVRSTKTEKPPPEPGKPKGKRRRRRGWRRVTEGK
The test is classed as biochemical.

Test [19] in a line: Luminescence Cell-Based Dose Retest to Confirm Inhibitors of Cancer Stem Cells. [Related pubchem assays (depositor defined):AID2717, AID2721]. As to conditions: Homo sapiens. It counts as functional.

The source of these data is ChEMBL document CHEMBL1201862, “PubChem BioAssay data set” (2004).

Activity calls are given as the source filed them. For most assays here, no stated cut-off is given here; in the data, actives have a measured EC50 and inactives only a lower limit. Where only a bound is given, the exact number is not on record here.

Sequence of Genome polyprotein (P29990 2492-3391 limits assumed): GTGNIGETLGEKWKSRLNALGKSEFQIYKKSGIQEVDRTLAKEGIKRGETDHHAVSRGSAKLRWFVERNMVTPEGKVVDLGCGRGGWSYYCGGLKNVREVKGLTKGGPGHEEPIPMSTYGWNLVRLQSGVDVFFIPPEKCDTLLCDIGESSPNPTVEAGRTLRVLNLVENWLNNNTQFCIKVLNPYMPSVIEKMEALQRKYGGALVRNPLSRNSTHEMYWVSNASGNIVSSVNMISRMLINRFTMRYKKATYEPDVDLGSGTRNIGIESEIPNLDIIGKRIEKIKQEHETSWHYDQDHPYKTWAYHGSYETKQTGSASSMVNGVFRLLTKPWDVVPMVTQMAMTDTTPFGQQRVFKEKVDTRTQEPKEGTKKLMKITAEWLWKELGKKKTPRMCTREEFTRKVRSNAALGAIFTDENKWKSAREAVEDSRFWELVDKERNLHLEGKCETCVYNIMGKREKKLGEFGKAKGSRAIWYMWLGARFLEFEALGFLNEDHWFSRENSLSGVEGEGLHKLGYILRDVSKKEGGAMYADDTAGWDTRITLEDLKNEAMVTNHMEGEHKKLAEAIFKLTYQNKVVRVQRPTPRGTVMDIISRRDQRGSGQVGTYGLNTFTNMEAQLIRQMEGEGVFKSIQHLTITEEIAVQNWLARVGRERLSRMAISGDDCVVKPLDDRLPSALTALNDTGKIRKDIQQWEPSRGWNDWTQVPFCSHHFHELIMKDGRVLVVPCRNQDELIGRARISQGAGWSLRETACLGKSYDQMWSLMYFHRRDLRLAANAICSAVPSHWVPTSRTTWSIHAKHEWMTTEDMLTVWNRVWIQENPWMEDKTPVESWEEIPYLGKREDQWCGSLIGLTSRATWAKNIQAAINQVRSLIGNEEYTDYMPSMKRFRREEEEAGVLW
Sequence of Nonstructural protein 1 (Q194T2 whole entry): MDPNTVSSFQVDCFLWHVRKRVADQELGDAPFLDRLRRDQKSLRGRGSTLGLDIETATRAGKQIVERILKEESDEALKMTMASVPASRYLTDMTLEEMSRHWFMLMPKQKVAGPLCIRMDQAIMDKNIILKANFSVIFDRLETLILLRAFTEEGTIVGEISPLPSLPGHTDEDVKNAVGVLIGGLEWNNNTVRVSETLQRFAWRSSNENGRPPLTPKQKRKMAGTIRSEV
Sequence of FAD-linked sulfhydryl oxidase ALR (P55789 whole entry): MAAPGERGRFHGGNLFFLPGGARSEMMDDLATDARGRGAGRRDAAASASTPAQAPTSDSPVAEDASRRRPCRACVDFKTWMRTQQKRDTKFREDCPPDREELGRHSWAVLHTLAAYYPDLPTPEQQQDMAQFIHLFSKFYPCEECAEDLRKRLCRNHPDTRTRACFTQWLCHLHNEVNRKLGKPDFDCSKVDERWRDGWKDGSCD
T3 sequence (P11940 whole entry, the tested form may be a part): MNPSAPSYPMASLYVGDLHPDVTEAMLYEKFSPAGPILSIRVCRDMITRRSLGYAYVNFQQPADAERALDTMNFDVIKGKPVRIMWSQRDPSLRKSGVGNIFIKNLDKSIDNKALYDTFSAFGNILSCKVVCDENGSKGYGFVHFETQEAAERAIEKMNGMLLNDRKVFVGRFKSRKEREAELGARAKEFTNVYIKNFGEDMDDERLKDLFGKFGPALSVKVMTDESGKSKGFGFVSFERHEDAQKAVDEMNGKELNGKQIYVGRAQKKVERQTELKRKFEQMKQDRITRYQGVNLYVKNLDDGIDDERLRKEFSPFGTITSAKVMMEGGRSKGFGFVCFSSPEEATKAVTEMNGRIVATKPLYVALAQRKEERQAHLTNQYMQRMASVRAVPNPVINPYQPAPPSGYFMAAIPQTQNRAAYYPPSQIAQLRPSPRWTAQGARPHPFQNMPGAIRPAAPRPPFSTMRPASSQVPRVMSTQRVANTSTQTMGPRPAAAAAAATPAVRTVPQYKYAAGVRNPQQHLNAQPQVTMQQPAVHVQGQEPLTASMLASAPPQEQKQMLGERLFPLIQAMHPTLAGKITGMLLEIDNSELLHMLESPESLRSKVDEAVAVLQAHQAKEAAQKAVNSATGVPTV

Broadly, the AC50 is the concentration at which the activity in the assay is half-maximal. In the case of `Cc1nc(C(=O)N2CCCC(Nc3ccc(C)c(C)c3)C2)cs1` (stereo not given), in test [1], the AC50 is 0.479 µM (active).

Usually EC50 stands for the concentration giving half of the maximal effect. Take `CC(C)(C)NC(=O)C(c1ccncc1)N(Cc1ccco1)C(=O)c1ccc(-c2ccccc2)[nH]1` (stereo not given): the EC50 was > 30 µM (not active) in test [2], 15.2 µM (active) in the test with H4 and 8.7 µM (active) in [3].

As to `O=C1c2ccccc2C(=O)c2c1cccc2N1CCN(Cc2ccccc2)CC1`, the IC50 at Nonstructural protein 1 was 7.08 µM (active).

For the molecule `O=C(/C=C/c1ccccc1Cl)c1ccc[nH]1`, the EC50 was 24.3 µM (active) in test [2], 38.9 µM (active) with H4 and 44.6 µM (active) in [3].

Turning to `Oc1ccc(CN2CCN(Cc3ccccc3)CC2)c2cccnc12`, the EC50 in the test “cells [4]” is > 350 µM (not active); in test [5] it was > 38 µM (not active); in test [6] it was 2.03 µM (active); in the test “cells [8]”, > 350 µM (not active); in test [9], > 60 µM (not active); in test [10], > 160 µM (inconclusive). Further, the IC50 is > 20 µM (inactive) in test [7] and 11.2 µM (active) at Nonstructural protein 1.

Turning to `O=C(Nc1cc(N2CCCCC2)ncn1)c1ccc(F)cc1`, the 50% effective concentration (EC50) in test [2] was 17.3 µM (active); with H4, 14.1 µM (active); in test [3] it was > 120 µM (not active).

Turning to `CCC1(C)NC(=O)N(CC(=O)N2CCC(Cc3ccccc3)CC2)C1=O` (stereo not given), in test [7], the IC50 is > 20 µM (inactive).

What is called CC50 is the concentration giving 50% cytotoxicity. Regarding `Cc1nc(Cl)sc1C(=O)Nc1cc(F)cc(F)c1`, the CC50 in the test on Vero is > 25 µM (active).

As to `O=C(O)c1cc([N+](=O)[O-])c(NCCC2=CCCCC2)c([N+](=O)[O-])c1`, the IC50 on Genome polyprotein is 72.8 µM (active). In addition, in [11], the EC50 was > 260 µM (inactive).

Consider `CC(=O)Nc1ccc2c(c1)nc1n2CCSC1`, for which, in test [1], the AC50 is 0.34 µM (active).

As for `N#CC1=C2Sc3ccccc3N2CCCC1=O`, the EC50 in [2] is 59 µM (active); in the test with H4 it was 19.7 µM (active); in test [3], 0.318 µM (active).

For the molecule `CCOC(=O)N1CCN(C(=O)CCN2C(=O)/C(=C\c3ccccc3OC)SC2=S)CC1`, the CC50 in the test on Vero was > 25 µM (active).

As for `COc1ccccc1N1CCN(S(=O)(=O)c2cccc(F)c2)CC1`, the concentration at half-maximal activity (AC50) in test [1] is 28.8 µM (active).

With `COc1ccc(-n2c(SCC(=O)c3c(N)n(C)c(=O)n(C)c3=O)nc3ccccc32)cc1`, the EC50 was > 150 µM (not active) in test [12], > 150 µM (inconclusive) with BJ [13], > 150 µM (not active) in the test on BJ [14] and > 150 µM (not active) with BJ [15].

Turning to `O=C(CSc1nc(O)c(Cc2ccccc2)c(O)n1)Nc1nnc(SCc2ccccc2)s1`, the IC50 on Genome polyprotein is 43.3 µM (active); in test [16] it was > 66 µM (inactive); in test [17] it was > 66 µM (inactive).

For `COc1ccc(NC(=O)C[S+]([O-])CC(=O)Nc2cc(Cl)ccc2OC)cc1` (stereo not given), the IC50 in test [7] is > 20 µM (inactive).

On to `Cc1nc2ccccc2c(=O)n1NC(=O)/C=C/c1ccc(Br)cc1`, for which the IC50 in [7] was > 20 µM (inactive).

On to `NC1=NC[C@H](Cc2ccc(O)cc2)N1CCc1cc(C(F)(F)F)cc(C(F)(F)F)c1`, for which the IC50 in [7] is > 20 µM (inactive).

For the molecule `NC(=O)NC(CC(=O)NNC(=O)c1ccccn1)c1ccccc1Cl` (stereo not given), the IC50 in test [7] is > 20 µM (inactive).

For the molecule `CCCCCCNc1c([N+](=O)[O-])cc(C)cc1[N+](=O)[O-]`, the AC50 in [18] is > 20 µM (inactive).

Turning to `COc1ccc(C(=O)Cn2c(C(C)=O)nc3ccccc32)cc1`, in the test with Vero, the CC50 was 11.5 µM (active).

Take `O=C(O)c1ccccc1N=N/C(=N/Nc1cc(S(=O)(=O)O)ccc1O)c1ccccc1`: the IC50 on Genome polyprotein is 19.1 µM (active); at Nonstructural protein 1, 21.9 µM (active). Also, the AC50 in test [18] is > 20 µM (inactive).

On to `O=C(O)c1cc(N/N=C/c2cccs2)ccc1Cl`, for which the EC50 in test [2] was 0.632 µM (active); with H4, 3.38 µM (active); in [3], 19 µM (active).

For the molecule `CCN(CC)CCOc1ccc(/C(=C(/Cl)c2ccccc2)c2ccccc2)cc1` [ENCLOMIPHENE], in [7], the IC50 was > 20 µM (inactive). Besides, the AC50 in [19] was 1.6 µM (active).
